Data from patent publication US20090291975A1, “DUAL OPIOID PAIN THERAPY” (priority 2008, published 2009).

Tested on: patients following bunionectomy surgery (acute pain)
Assay: Study 4: opioid adverse events at morphine equivalent doses, bunionectomy study
Settings: morphine equivalent 12 mg, q6h, 48 hr

| Structure (SMILES) | Adverse Events (%): Constipation - moderate/severe | Adverse Events (%): Constipation mild/mod/severe | Adverse Events (%): Dizziness - moderate/severe | Adverse Events (%): Dizziness mild/mod/severe | Adverse Events (%): Nausea - moderate/severe | Adverse Events (%): Nausea mild/mod/severe | Adverse Events (%): Vomiting - moderate/severe | Adverse Events (%): Vomiting mild/mod/severe | Dropouts (%) |
| --- | --- | --- | --- | --- | --- | --- | --- | --- | --- |
| COc1ccc2c3c1O[C@H]1C(=O)CC[C@@]4(O)[C@@H](C2)N(C)CC[C@]314 [Oxycodone, oxycodone] | 6% | 6% | 12% | 24% | 26% | 50% | 21% | 21% | 12% |
| CN1CC[C@]23c4c5ccc(O)c4O[C@H]2[C@@H](O)C=C[C@H]3[C@H]1C5 [Morphine, morphine] | 10% | 10% | 7% | 31% | 28% | 59% | 21% | 21% | 7% |
